Patent US12139542B2, “Inhibitors of aortic carboxypeptidase-like protein (ACLP)” (TRUSTEES OF BOSTON UNIVERSITY, priority 2014, dated 2024)

System: ACLP
Test: siRNA knockdown of ACLP in differentiating primary lung fibroblasts (Western blot)
Assay type: cell-based, mouse
Settings: primary lung fibroblasts transfected day 1 post-isolation, 2 nM siRNA, vs NTC siRNA
Procedure: siRNA. Differentiating primary lung fibroblasts were transfected with 2 nM small interfering RNA (siRNA) targeting ACLP (Dharmacon) ([…]) (SEQ ID NO: 5) on either day 1 or day 2 post-isolation. Fully differentiated primary lung myofibroblasts were transfected at passage 2 or 3 with 2 nM siRNA targeting ACLP. Non-targeting control (NTC) siRNA ([…], […], […], […]) (SEQ ID NO: 6) was used as a control in all experiments. Transfections were performed using RNAiMAX (Invitrogen) according to manufacturer's instructions.
Knockdown of ACLP slows and partially reverts the fibroblast to myofibroblast transition. To determine if ACLP was required for fibroblast to myofibroblast differentiation, siRNA was used to knockdown ACLP expression during myofibroblast differentiation. Freshly isolated wildtype primary lung fibroblasts were transfected on day 1 post-isolation with siRNA targeting ACLP (FIG. 2B) (3).

Sequence: GGCUCAAGAUCUACGCAAU (listed as RNA, chemistry not given here) [ACLP siRNA, small interfering RNA targeting mouse ACLP (Dharmacon)]
- reduction in ACLP protein expression: 68%
- reduction of Collagen I levels: 5%
- reduction in SMA protein expression (statistically significant): 63%
